Laboratory results published in the supplement of paper PMC11208160.

Test: recombinant barcode read abundance after kanamycin selection (control-corrected) (log10(CPM+1)); higher = more efficient recombination; sequences stand for … in AGTGCAGAGAAAATCGGCCAGTTTTCTCTGCCTGCAGTCCGCATGCCGT…AGATTTATGCAGCGGACTGCCTTTCTCCCAAAGTGATAAACCGGACAGTATCATGGACCGGTTTTCCCGGTAATCCGTATTTGCAAGGTTGGTTTCACT; site = the 11-nt target
Procedure, shortened: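 Recombination efficiency was calculated from barcode counts at recombinant junctions, normalized to counts per million, averaged and corrected by the control. Each value is given as log10(CPM+1). The constructs were Gibson-cloned oligos (promoter, target, barcode, J23119-driven first 104 bridge RNA bases) in a vector with the remaining 73 bp and a T7-inducible recombinase, co-electroporated into E. coli with a donor plasmid and plated in duplicate on chloramphenicol/ampicillin LB agar (control) or chloramphenicol/ampicillin/kanamycin with 0.1 mM IPTG.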
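Further: IS621 recombinase and bridge RNA in Escherichia coli cells.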

Sequence	recombinant barcode read abundance (log10)
TATAGAACTTGGGTTCTAACCTGTTGCCT (site TATAAAACTAG)	0.119
TATAGAACTTGGGTTCTAACCTGTTGCCT (site TATACAACTAG)	0.0987
TATAGAACTTGGGTTCTAACCTGTTGCCT (site TATAGAACTAG)	0.192
TATAGAACTTGGGTTCTAACCTGTTGCCT (site TATATAACTAG)	0.015
TATCCGACTTGGGTTCTAACCTGTTGCCC (site TATCCGACTAG)	0.238
TATCCGACTTGGGTTCTAACCTGTTGCCC (site TATCCGACTCG)	0.146
TATCCGACTTGGGTTCTAACCTGTTGCCC (site TATCCGACTGG)	0.688
TATCCGACTTGGGTTCTAACCTGTTGCCC (site TATCCGACTTG)	0.125
TATCGCACTTGGGTTCTAACCTGTTGCCT (site TATCGCACTAG)	0.0277
TATCGCACTTGGGTTCTAACCTGTTGCCT (site TATGGGACTAG)	0.0986
TATCGGGCTTGGGTTCTAACCTGTTGCAG (site ATGGACCCTGA)	0.0316
TATCGGGCTTGGGTTCTAACCTGTTGCAG (site TATCGGGCTCT)	1.57
TATCGTCCTTGGGTTCTAACCTGTTGCAT (site TACCGTCCTAT)	0.0483
TATCGTCCTTGGGTTCTAACCTGTTGCAT (site TATCGTCCTAT)	0.803
TATCTGACTTGGGTTCTAACCTGTTGCCT (site TATCAGACTTG)	0.0204
TATCTGACTTGGGTTCTAACCTGTTGCCT (site TATCTGACTAG)	0.202
TATGCTACTTGGGTTCTAACCTGTTGCAT (site AATGCTACTAT)	1.03
TATGCTACTTGGGTTCTAACCTGTTGCAT (site TATGCTACTAT)	0.371
TATGCTTCTTGGGTTCTAACCTGTTGCTT (site TATGCTTCTAA)	0.0973
TATGCTTCTTGGGTTCTAACCTGTTGCTT (site TATGGTTCTAG)	0.0104
TATGGGTCTTGGGTTCTAACCTGTTGCCT (site TATGGGTCTAG)	1.04
TATGGGTCTTGGGTTCTAACCTGTTGCCT (site TGTGGGTCTAG)	0.209

Sequence	recombinant barcode read abundance (log10)
TATGTAGCTTGGGTTCTAACCTGTTGCCG (site TATGTAGCTAG)	0.486
TATGTAGCTTGGGTTCTAACCTGTTGCCG (site TATGTAGCTCG)	1.04
TATGTAGCTTGGGTTCTAACCTGTTGCCG (site TATGTAGCTGG)	0.107
TATGTAGCTTGGGTTCTAACCTGTTGCCG (site TATGTAGCTTG)	0.0858
TATGTAGCTTGGGTTCTAACCTGTTGCCT (site TATGTAGCTAG)	0.677
TATGTAGCTTGGGTTCTAACCTGTTGCCT (site TATGTAGCTCG)	0.353
TATGTAGCTTGGGTTCTAACCTGTTGCCT (site TATGTAGCTGG)	0.103
TATGTAGCTTGGGTTCTAACCTGTTGCCT (site TATGTAGCTTG)	0.129
TATTAACCTTGGGTTCTAACCTGTTGCCT (site TATTAACCTAG)	0.329
TATTAACCTTGGGTTCTAACCTGTTGCCT (site TATTACCCTAG)	0.117
TATTAACCTTGGGTTCTAACCTGTTGCCT (site TATTAGCCTAG)	0.0897
TATTAACCTTGGGTTCTAACCTGTTGCCT (site TATTATCCTAG)	0.0539
TATTAGCCTTGGGTTCTAACCTGTTGCCT (site TATTAACCTAG)	0.138
TATTAGCCTTGGGTTCTAACCTGTTGCCT (site TATTACCCTAG)	0.283
TATTAGCCTTGGGTTCTAACCTGTTGCCT (site TATTAGCCTAG)	0.123
TATTAGCCTTGGGTTCTAACCTGTTGCCT (site TATTATCCTAG)	0.27
TATTATCCTTGGGTTCTAACCTGTTGCCT (site TATTAACCTAG)	0.341
TATTATCCTTGGGTTCTAACCTGTTGCCT (site TATTACCCTAG)	0.0929
TATTATCCTTGGGTTCTAACCTGTTGCCT (site TATTAGCCTAG)	0.121
TATTATCCTTGGGTTCTAACCTGTTGCCT (site TATTATCCTAG)	0.0487
TATTCTACTTGGGTTCTAACCTGTTGCGA (site TATTCTACTAC)	0.0359
TATTCTACTTGGGTTCTAACCTGTTGCGA (site TATTCTACTCC)	0.0347

Sequence	recombinant barcode read abundance (log10)
TATTCTACTTGGGTTCTAACCTGTTGCGA (site TATTCTACTGC)	0.165
TATTCTACTTGGGTTCTAACCTGTTGCGA (site TATTCTACTTC)	0.0707
TATTCTCCTTGGGTTCTAACCTGTTGCAT (site TATTCTCCTAA)	0.0409
TATTCTCCTTGGGTTCTAACCTGTTGCAT (site TATTCTCCTAC)	0.235
TATTCTCCTTGGGTTCTAACCTGTTGCAT (site TATTCTCCTAG)	0.00827
TATTCTCCTTGGGTTCTAACCTGTTGCAT (site TATTCTCCTAT)	0.186
TATTGGACTTGGGTTCTAACCTGTTGCAA (site TATTGGACTAT)	0.218
TATTGGACTTGGGTTCTAACCTGTTGCAA (site TATTGGACTCT)	0.017
TATTGGACTTGGGTTCTAACCTGTTGCAA (site TATTGGACTGT)	0.0217
TATTGGACTTGGGTTCTAACCTGTTGCAA (site TATTGGACTTT)	0.303
TATTGTCCTTGGGTTCTAACCTGTTGCCT (site TATAGTACTAG)	0.0216
TATTGTCCTTGGGTTCTAACCTGTTGCCT (site TATTGTCCTAG)	0.124
TATTTGTCTTGGGTTCTAACCTGTTGCTA (site TAGTCGTCTTA)	0.148
TATTTGTCTTGGGTTCTAACCTGTTGCTA (site TATTTGTCTTA)	0.486
TCAAAGGCTTGGGTTCTAACCTGTTGCCT (site TCAAAGGCTAG)	0.0805
TCAAAGGCTTGGGTTCTAACCTGTTGCCT (site TCCAAGGCTAG)	0.238
TCAAAGGCTTGGGTTCTAACCTGTTGCCT (site TCGAAGGCTAG)	0.13
TCAAAGGCTTGGGTTCTAACCTGTTGCCT (site TCTAAGGCTAG)	0.0999
TCAAATTCTTGGGTTCTAACCTGTTGCCT (site TCAAATTCTAG)	0.0401
TCAAATTCTTGGGTTCTAACCTGTTGCCT (site TCACATTCTAG)	0.0721
TCAAATTCTTGGGTTCTAACCTGTTGCCT (site TCAGATTCTAG)	0.108
TCAAATTCTTGGGTTCTAACCTGTTGCCT (site TCATATTCTAG)	0.0151

Sequence	recombinant barcode read abundance (log10)
TCACAGACTTGGGTTCTAACCTGTTGCCG (site GTTAGCCCTAT)	0.11
TCACAGACTTGGGTTCTAACCTGTTGCCG (site TCACAGACTCG)	1.2
TCACGGTCTTGGGTTCTAACCTGTTGCCT (site TCACGGTCTAG)	0.598
TCACGGTCTTGGGTTCTAACCTGTTGCCT (site TCTCGGTCTAG)	0.0701
TCACGTCCTTGGGTTCTAACCTGTTGCAT (site TCACGTCCTAA)	0.0411
TCACGTCCTTGGGTTCTAACCTGTTGCAT (site TCACGTCCTAC)	0.187
TCACGTCCTTGGGTTCTAACCTGTTGCAT (site TCACGTCCTAG)	0.745
TCACGTCCTTGGGTTCTAACCTGTTGCAT (site TCACGTCCTAT)	0.576
TCACGTCCTTGGGTTCTAACCTGTTGCCT (site TCACGTCCTAA)	0.403
TCACGTCCTTGGGTTCTAACCTGTTGCCT (site TCACGTCCTAC)	0.0778
TCACGTCCTTGGGTTCTAACCTGTTGCCT (site TCACGTCCTAG)	0.456
TCACGTCCTTGGGTTCTAACCTGTTGCCT (site TCACGTCCTAT)	0.144
TCACTAGCTTGGGTTCTAACCTGTTGCCT (site TCACTAGCTAG)	0.0596
TCACTAGCTTGGGTTCTAACCTGTTGCCT (site TTACGAGCTAG)	0
TCAGACCCTTGGGTTCTAACCTGTTGCCT (site TAAGACCCTAG)	0.417
TCAGACCCTTGGGTTCTAACCTGTTGCCT (site TCAGACCCTAG)	2.31
TCAGAGGCTTGGGTTCTAACCTGTTGCTG (site TCAGAGGCTCA)	0.623
TCAGAGGCTTGGGTTCTAACCTGTTGCTG (site TCCGAGGCTCA)	0.118
TCAGAGGCTTGGGTTCTAACCTGTTGCTG (site TCGGAGGCTCA)	0.0529
TCAGAGGCTTGGGTTCTAACCTGTTGCTG (site TCTGAGGCTCA)	0.156
